Read-outs that look alike come from different tables or passages of the source.

Broadly, the residual activity is the signal under treatment as a percentage of the control signal.

Experiment [1] has as its target T1, recombinant human MAP4K4 (Homo sapiens, UniProt O95819).
T1 construct: Human MAP4K4 kinase domain (aa 1-328); purchased Invitrogen PV3687
The experiment in a line: In vitro MAP4K4 kinase activity assay (HTRF Transcreener ADP). The class given is biochemical. The procedure:
MAP4K4 kinase activity was monitored using the CisBio HTRF Transcreener ADP assay, a competitive immunoassay with a reproducible Z’ > 0.6. In the detection step, endogenous ADP and d2-labeled ADP compete for binding an anti-ADP monoclonal antibody labeled with Eu^3+ cryptate. […] Assays were run in Greiner low volume plates with a final reaction volume of 10 μl. Percent inhibition was calculated from 100% activity of MAP4K4 (DMSO only) and 0% activity (no enzyme added). Data were either reported as % inhibition at a single dose or as pIC50 values derived from dose response curves (pIC50 = -log[IC50]).
(Time-resolved FRET reads energy transfer from a long-lived donor to a nearby acceptor.)

For experiment [2], the target named is T2, PKBb (Homo sapiens, UniProt P31751).
T2 construct: lines 1-140) and Reaction Biology
Kind of experiment: Dundee kinase panel. The class given is biochemical. The following applies: for remaining activity at 1 µM: read-out: residual activity. The procedure: (§1) Compounds were screened at 1 μM. For key hits, pIC50 values were then determined by HTRF as above. […] Stability in mouse and human liver microsomes was determined by Cyprotex.

Experiment [3] has as its target T3, PKBa (Homo sapiens, UniProt P31749).
T3 construct: lines 1-140) and Reaction Biology
Kind of experiment: Dundee kinase panel. The class given is biochemical. The following applies: for remaining activity at 1 µM: read-out: residual activity. The procedure: as §1

Experiment [4] deals with T4, Aurora A (Homo sapiens, UniProt O14965).
T4 construct: lines 1-140) and Reaction Biology
T4 sequence (O14965 1-403): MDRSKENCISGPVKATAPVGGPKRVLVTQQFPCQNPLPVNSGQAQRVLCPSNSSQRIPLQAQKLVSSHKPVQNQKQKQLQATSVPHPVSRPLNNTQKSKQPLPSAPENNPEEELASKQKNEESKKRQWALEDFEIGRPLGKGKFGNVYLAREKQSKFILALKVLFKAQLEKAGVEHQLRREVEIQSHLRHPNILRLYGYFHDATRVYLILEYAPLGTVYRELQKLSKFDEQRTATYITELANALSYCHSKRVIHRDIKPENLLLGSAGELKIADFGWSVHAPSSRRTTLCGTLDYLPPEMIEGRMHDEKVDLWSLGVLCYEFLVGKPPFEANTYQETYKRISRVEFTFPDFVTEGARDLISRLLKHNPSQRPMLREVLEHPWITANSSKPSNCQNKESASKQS
Kind of experiment: Dundee kinase panel. The class given is biochemical. The following applies: for remaining activity at 1 µM: read-out: residual activity. The procedure: as §1

Experiment [5] addresses T5, EPH-A2 (Homo sapiens, UniProt P29317).
T5 construct: lines 1-140) and Reaction Biology
The experiment in a line: Dundee kinase panel. The settings on record: for remaining activity at 1 µM: read-out: residual activity. The class given is biochemical. The procedure:
as §1

Experiment [6] relates to AMPK. The experiment in a line: Dundee kinase panel. The class given is biochemical, human. The following applies: 1 μM. As for the experimental part: as §1
For experiment [7], the system named is PHK. The experiment in a line: Dundee kinase panel. The following applies: 1 μM. The class given is biochemical, human. The procedure: as §1
Experiment [8] deals with PINK. Kind of experiment: Dundee kinase panel. The class given is biochemical, human. The following applies: 1 μM. As for the experimental part: Kinase selectivity profiling was performed by the International Centre for Kinase Profiling, MRC Protein Phosphorylation and Ubiquitylation Unit (141 kinases; Premier Screen, http://www.kinase-screen.mrc.ac.uk), using a [γ-^33P]ATP filter binding assay ([Bain et al., 2007]). Compounds were screened at 1 μM. For key hits, pIC50 values were then determined by HTRF as above. More complete kinome profiling was performed by Reaction Biology (376 kinases). Stability in mouse and human liver microsomes was determined by Cyprotex.

The target of experiment [9] is TNIK/MAP4K7 (Homo sapiens, UniProt Q9UKE5). The experiment in a line: HTRF Transcreener ADP kinase assay. The class given is biochemical. As for the experimental part:
(§2) In the detection step, endogenous ADP and d2-labeled ADP compete for binding an anti-ADP monoclonal antibody labeled with Eu^3+ cryptate. A ratiometric fluorescent readout is used at 665 and 620 nm. […] Assays were run in Greiner low volume plates with a final reaction volume of 10 μl. […] Data were either reported as % inhibition at a single dose or as pIC50 values derived from dose response curves (pIC50 = -log[IC50]). Kinase selectivity profiling was performed by the International Centre for Kinase Profiling, MRC Protein Phosphorylation and Ubiquitylation Unit (141 kinases; Premier Screen, http://www.kinase-screen.mrc.ac.uk), using a [γ-^33P]ATP filter binding assay ([Bain et al., 2007]). Compounds were screened at 1 μM. For key hits, pIC50 values were then determined by HTRF as above. […] Stability in mouse and human liver microsomes was determined by Cyprotex.

Experiment [10] addresses MINK1/MAP4K6 (Homo sapiens, UniProt Q8N4C8). The experiment in a line: HTRF Transcreener ADP kinase assay. The class given is biochemical. As for the experimental part:
as §2

In experiment [11] the test system is vCor.4U cardiomyocytes. Kind of experiment: Human cardiac troponin I release (AlphaLISA) after oxidative stress. The class given is cell-based. The following applies: 10 μM compound, up to 200 μM H2O2 or 45 μM menadione. The procedure: For cell-based dose-response experiments, MAP4K4 inhibitors were prepared in 96-well polypropylene plates as serial dilutions in DMSO of 10 mM stock solutions. To a sterile 96-well intermediate plate, 1 μl of each well was added to 99 μl of medium, the samples were mixed, and 5 μl well^-1 from the intermediate plate were transferred to the cultured cells (final concentration, 0.1% DMSO; final top concentration of inhibitor, 10 μM). Assay plates were gently centrifuged then incubated for 1 hr at 37°C. The death triggers menadione, H2O2 and doxorubicin were prepared fresh on the day of treatment at 10x the final concentrations and 5 μl well^-1 were added as appropriate. Assay plates were gently centrifuged and then incubated at 37°C for the duration of treatment.
Aliquots of medium collected after cells’ treatment with death signals and MAP4K4 inhibitors were incubated at room temperature with AlphaLISA human cardiac troponin I detection reagents (PerkinElmer): sequentially, anti-Troponin I acceptor beads for 1 hr, biotinylated antibody to troponin I for 1hr, and streptavidin (SA)-coated donor beads for 30 min. The AlphaLISA signal was acquired using the Pherastar Plus plate reader. All detection reagents were diluted in 1X AlphaLISA Immunoassay Buffer and a serially diluted analyte standard was used to quantitate the concentration of human cardiac troponin I (pg ml^-1).
On the technique in general: Alpha assays give light when donor and acceptor beads are brought close together.

Setting [12] is: dose-response, Figure 2C, read-out: IC50 against recombinant human MAP4K4.
Where [13] appears, read: MAP4K4, HTRF Transcreener ADP assay, read-out: pIC50 (converted).

T2 sequence (P31751 whole entry): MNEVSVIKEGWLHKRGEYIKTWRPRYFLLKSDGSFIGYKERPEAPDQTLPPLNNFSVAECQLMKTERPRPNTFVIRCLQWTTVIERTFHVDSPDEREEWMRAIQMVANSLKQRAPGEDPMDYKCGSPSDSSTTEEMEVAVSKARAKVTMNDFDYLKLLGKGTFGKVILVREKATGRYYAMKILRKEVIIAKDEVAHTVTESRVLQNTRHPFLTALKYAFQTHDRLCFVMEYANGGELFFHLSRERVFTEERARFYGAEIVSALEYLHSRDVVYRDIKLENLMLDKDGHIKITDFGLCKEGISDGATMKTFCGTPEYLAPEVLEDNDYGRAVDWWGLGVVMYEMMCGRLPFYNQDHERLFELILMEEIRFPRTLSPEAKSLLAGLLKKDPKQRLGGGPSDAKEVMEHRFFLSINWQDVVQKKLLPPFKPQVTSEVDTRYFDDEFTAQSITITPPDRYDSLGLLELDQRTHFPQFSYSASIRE
T3 sequence (P31749 whole entry): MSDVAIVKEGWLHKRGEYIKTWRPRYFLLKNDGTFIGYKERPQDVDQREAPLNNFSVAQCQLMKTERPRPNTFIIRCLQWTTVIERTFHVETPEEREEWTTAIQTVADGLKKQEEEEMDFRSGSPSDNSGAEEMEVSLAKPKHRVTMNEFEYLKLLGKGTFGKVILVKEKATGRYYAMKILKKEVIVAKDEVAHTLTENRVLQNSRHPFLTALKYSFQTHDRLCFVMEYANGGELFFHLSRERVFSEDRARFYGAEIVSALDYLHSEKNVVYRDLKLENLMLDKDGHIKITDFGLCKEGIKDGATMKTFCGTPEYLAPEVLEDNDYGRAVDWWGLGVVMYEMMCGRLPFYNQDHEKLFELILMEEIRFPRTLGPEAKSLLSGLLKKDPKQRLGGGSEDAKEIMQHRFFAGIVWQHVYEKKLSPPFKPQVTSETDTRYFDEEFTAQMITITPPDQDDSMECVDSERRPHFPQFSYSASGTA
T1 sequence (O95819 1-328): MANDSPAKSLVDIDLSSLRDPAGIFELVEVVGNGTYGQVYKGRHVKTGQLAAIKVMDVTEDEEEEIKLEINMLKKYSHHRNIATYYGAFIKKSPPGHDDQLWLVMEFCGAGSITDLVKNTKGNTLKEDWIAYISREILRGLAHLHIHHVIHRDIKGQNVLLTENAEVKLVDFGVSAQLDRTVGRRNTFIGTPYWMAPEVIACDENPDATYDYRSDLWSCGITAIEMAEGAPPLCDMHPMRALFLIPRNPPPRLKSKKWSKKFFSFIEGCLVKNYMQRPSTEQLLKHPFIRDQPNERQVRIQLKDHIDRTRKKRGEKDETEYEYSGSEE
T5 sequence (P29317 24-976): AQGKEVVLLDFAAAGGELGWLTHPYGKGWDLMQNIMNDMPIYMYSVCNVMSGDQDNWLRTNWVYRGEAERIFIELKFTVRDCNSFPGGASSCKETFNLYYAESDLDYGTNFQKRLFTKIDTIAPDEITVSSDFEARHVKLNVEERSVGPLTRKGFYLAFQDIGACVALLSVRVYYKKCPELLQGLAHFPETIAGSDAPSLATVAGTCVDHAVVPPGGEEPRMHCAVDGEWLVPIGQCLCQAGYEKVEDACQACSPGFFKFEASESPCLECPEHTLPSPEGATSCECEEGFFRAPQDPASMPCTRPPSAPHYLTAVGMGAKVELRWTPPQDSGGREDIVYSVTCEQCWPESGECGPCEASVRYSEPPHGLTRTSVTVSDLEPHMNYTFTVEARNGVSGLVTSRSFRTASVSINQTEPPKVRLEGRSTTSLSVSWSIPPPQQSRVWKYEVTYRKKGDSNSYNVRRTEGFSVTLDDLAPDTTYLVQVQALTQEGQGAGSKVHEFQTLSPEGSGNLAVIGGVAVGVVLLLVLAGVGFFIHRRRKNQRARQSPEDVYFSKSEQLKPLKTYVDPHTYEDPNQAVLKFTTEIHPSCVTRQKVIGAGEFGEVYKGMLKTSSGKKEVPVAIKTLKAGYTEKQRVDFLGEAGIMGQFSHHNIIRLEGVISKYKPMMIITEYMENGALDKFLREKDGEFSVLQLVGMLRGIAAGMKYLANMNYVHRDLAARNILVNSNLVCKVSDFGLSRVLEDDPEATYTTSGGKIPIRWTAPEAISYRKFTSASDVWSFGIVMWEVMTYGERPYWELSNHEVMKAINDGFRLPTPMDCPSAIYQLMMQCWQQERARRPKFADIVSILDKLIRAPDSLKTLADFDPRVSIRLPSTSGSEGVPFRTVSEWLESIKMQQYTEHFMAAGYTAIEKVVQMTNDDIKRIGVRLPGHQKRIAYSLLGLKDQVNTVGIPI
Sequence of TNIK/MAP4K7 (Q9UKE5 whole entry): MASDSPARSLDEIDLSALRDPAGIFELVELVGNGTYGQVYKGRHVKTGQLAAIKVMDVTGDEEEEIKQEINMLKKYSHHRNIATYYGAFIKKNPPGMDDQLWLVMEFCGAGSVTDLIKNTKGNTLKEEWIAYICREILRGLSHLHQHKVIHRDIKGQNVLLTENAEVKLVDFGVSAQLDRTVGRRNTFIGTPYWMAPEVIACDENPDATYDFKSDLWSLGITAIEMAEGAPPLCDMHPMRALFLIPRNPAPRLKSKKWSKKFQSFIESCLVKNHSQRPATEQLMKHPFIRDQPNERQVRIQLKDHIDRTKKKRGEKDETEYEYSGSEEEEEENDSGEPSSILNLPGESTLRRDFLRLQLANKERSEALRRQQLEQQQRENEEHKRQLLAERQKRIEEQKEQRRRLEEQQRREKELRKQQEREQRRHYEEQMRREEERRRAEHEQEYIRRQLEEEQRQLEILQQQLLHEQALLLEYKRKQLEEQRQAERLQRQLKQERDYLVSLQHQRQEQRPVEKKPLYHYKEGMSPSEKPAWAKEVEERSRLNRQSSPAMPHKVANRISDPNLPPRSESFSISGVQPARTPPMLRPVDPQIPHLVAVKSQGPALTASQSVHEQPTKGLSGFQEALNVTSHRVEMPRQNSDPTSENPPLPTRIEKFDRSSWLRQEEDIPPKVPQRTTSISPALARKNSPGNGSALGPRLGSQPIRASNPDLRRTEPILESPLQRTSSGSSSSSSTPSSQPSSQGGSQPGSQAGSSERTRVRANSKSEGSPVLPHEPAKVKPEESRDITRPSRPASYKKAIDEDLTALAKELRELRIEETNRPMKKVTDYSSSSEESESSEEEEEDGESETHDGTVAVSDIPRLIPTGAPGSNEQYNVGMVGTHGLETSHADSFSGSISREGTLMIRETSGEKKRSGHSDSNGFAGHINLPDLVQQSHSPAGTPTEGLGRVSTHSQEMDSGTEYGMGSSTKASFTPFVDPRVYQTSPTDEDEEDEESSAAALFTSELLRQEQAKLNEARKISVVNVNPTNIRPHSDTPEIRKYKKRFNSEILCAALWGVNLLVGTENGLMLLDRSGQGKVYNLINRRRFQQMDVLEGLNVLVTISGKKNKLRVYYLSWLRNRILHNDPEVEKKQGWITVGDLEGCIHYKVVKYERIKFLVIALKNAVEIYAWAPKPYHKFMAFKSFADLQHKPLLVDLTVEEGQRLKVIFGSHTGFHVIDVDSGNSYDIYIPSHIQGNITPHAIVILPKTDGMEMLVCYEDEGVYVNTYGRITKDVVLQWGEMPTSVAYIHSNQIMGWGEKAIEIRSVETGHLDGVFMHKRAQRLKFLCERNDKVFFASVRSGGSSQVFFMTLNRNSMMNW
Sequence of MINK1/MAP4K6 (Q8N4C8 whole entry): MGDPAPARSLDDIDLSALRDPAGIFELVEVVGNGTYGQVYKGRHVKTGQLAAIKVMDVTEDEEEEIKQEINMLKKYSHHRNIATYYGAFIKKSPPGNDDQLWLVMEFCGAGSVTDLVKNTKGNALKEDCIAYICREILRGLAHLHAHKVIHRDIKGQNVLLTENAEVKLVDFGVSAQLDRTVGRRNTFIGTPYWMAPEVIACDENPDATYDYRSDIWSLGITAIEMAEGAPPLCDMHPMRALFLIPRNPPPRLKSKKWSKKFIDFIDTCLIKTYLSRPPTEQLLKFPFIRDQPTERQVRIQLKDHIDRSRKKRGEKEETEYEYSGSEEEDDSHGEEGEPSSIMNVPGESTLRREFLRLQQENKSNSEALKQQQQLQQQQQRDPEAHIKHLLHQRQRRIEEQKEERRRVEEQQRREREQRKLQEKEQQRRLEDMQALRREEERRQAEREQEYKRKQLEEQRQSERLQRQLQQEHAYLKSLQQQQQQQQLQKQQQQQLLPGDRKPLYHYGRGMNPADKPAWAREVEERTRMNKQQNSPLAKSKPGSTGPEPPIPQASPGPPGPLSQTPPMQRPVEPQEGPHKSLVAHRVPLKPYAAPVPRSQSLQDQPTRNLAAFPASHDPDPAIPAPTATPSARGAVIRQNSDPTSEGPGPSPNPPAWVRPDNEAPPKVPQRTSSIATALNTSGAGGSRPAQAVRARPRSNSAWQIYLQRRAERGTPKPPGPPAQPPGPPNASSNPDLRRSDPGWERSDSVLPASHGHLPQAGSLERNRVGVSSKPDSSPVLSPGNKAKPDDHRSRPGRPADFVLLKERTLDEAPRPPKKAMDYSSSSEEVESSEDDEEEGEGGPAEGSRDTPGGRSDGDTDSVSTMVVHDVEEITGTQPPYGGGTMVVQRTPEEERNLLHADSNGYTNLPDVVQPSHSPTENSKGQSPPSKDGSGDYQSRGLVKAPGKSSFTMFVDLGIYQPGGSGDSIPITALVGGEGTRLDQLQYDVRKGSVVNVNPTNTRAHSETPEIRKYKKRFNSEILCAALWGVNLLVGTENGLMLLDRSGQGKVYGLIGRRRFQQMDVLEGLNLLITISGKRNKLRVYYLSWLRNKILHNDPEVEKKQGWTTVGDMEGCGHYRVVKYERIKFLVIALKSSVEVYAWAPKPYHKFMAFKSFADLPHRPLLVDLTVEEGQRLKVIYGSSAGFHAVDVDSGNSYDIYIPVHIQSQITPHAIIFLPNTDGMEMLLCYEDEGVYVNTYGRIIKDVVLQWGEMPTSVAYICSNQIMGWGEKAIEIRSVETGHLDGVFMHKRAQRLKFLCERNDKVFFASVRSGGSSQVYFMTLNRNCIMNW

Turning to `O=C1Nc2ccc(I)cc2/C1=C/c1cc(Br)c(O)c(Br)c1` [GW5074], in [1] (setting [12]), the IC50 was 30 nM. For the same compound, the remaining activity at 1 µM in experiment [2] amounted to 69%; in [3] it was 93%; in [4] it was 79%; in experiment [5], 63%. Further, the figures for the residual activity in [6] and in experiment [7] were 42% and 26%, respectively.

For `Nc1ncc(C(=O)NC2CN(C(=O)C3CC3)C2)c2ccc(-c3cccc(F)c3)nc12` [GNE-495], the residual activity in [2] (1 μM) is 99%; in experiment [3] (1 μM) it was 105%; in [4] (1 μM), 73%; in experiment [5] (1 μM) it was 112%; in experiment [8], 104%; in [6], 81%. Further, in [7], the residual activity came to 96%.

With `Oc1ncnc2c1c(-c1ccccc1)cn2-c1ccccc1` [F1386-0303, 5,7-diphenyl-7H-pyrrolo[2,3-d]pyrimidin-4-ol], the IC50 in [1] (setting [13]) is 34.7 nM; in experiment [1] (setting [12]) it was 34 nM; in experiment [9], 93.3 nM; in [10] it was 38 nM. Also, the remaining activity at 1 µM in [2] came out at 95%; in [3] it was 117%; in experiment [4], 111%; in experiment [5], 97%. The results for the residual activity in [8], in [6] and in [7] were 104%, 114% and 106%, respectively. Also, the “protection from death signal (human cardiac troponin release)” value in [11] is “virtually complete”.

Take `COCCOc1ccc(-c2cn(-c3ccccc3)c3nc[nH]c(=O)c23)cc1` [DMX-5804, 5-[4-(2-methoxy-ethoxy)-phenyl]-7-phenyl-3,7-dihydro-pyrrolo[2,3-d]pyrimidin-4-one]: the “fold greater potency compared with F1386-0303” value in [1] is recorded as 10 fold. For the same compound, the values for the IC50 in experiment [1] (setting [13]), in experiment [9] and in experiment [10] were 2.82 nM, 11 nM and 6.61 nM, respectively. For the same compound, the remaining activity at 1 µM turned out to be 116% in [2], 116% in experiment [3], 72% in [4] and 94% in experiment [5]. For the same compound, the residual activity in experiment [8] came out at 108%; in [6], 87%; in experiment [7] it was 102%. Further, in experiment [11], the “protection from death signal (human cardiac troponin release)” value is “substantiated”.

As for `O=C1Cc2c([nH]c3ccc(Br)cc23)-c2ccccc2N1` [Kenpaullone], the IC50 in experiment [1] (setting [12]) was determined as 30 nM. Moreover, the remaining activity at 1 µM was determined as 106% in experiment [2], 95% in experiment [3], 96% in [4] and 103% in experiment [5]. Moreover, the residual activity in [6] worked out at 64%; in [7], 20%.

The values above are taken from publication PMC6458995, “MAP4K4 Inhibition Promotes Survival of Human Stem Cell-Derived Cardiomyocytes and Reduces Infarct Size In Vivo” (Cell Stem Cell, 2019).
